Values of other authors as cited in patent US9308169B2, “Microspheres for active embolization” (Biosphere Medical, Inc., priority 2000, dated 2016).

Settings: effect of the spacer / dangling cationic head of the transfection agent; general statement, no test described

Q: With `CCCCCCCC/C=C\CCCCCCCC(=O)OC[C@H](COC(=O)CCC(=O)OCC[N+](C)(C)C)OC(=O)CCCCCCC/C=C\CCCCCCCC` [DOSC] as the compound, how does the transfection efficiency read?
A: best transfection efficiency

Q: Which transfection efficiency does the source give for `CCCCCCCC/C=C\CCCCCCCC(=O)OC[C@H](COC(=O)CCC[N+](C)(C)C)OC(=O)CCCCCCC/C=C\CCCCCCCC` [DOTB] here?
A: best transfection efficiency
